# Columns and labels:
# Experiment in all cases: Kinase Profiler 10 μM panel
# [1] = molecular target: AAK1(h) (Homo sapiens (Human), UniProt Q2M2I8)
# Procedure: (§1) In vitro kinase assays were conducted using Kinase Profiler services provided by Eurofins. The experimental method was as follows: the small molecule compound to be tested (0.001-10 μM), the protein kinase to be tested were incubated with a buffer containing substrate, 10 mM magnesium acetate, and [γ-^33P-ATP], the reaction was started by adding Mg\TPmix, after incubation for a period of time at room temperature, a 3% phosphate solution was added to the buffer to stop the reaction. Subsequently, 10 μL of the reaction mixture was quantitatively pipetted onto P30 filter paper, which was washed three times with 75 mM phosphate solution and then once with methanol. The P30 filter paper was air-dried and scintillation fluid was added for scintillation counting.
# [2] = molecular target: Pim-2(h) (Homo sapiens (Human), UniProt Q9P1W9)
# Procedure: as §1
# [3] = molecular target: ATM(h) (Homo sapiens (Human), UniProt Q13315)
# Procedure: as §1
# [4] = molecular target: Aurora-B(h) (Homo sapiens (Human), UniProt Q96GD4)
# Procedure: as §1
# [5] = molecular target: Blk(h) (Homo sapiens (Human), UniProt P51451)
# Procedure: as §1
# [6] = molecular target: IKKß(h) (Homo sapiens (Human), UniProt O14920)
# Procedure: as §1
# [7] = molecular target: PKCθ(h) (Homo sapiens (Human), UniProt Q04759)
# Procedure: as §1
# [8] = molecular target: PKD3(h) (Homo sapiens (Human), UniProt O94806)
# Procedure: as §1
# [9] = molecular target: KDR(h) (Homo sapiens (Human), UniProt P35968)
# Procedure: as §1
# [10] = molecular target: LOK(h) (Homo sapiens (Human), UniProt O94804)
# Procedure: as §1
# [11] = molecular target: Ret(h) (Homo sapiens (Human), UniProt P07949)
# Procedure: as §1
# [12] = molecular target: Ron(h) (Homo sapiens (Human), UniProt Q04912)
# Procedure: as §1
# [13] = molecular target: SAPK2a(h) (Homo sapiens (Human), UniProt Q16539)
# Procedure: as §1
# [14] = molecular target: MEKK2(h) (Homo sapiens (Human), UniProt Q9Y2U5)
# Procedure: as §1
# [15] = molecular target: CHK2(I157T)(h) (Homo sapiens (Human), UniProt O96017, I157T)
# Procedure: as §1
# [16] = molecular target: CK1γ3(h) (Homo sapiens (Human), UniProt Q9Y6M4)
# Procedure: as §1
# [17] = molecular target: cKit(h) (Homo sapiens (Human), UniProt P10721)
# Procedure: as §1
# [18] = molecular target: CLK4(h) (Homo sapiens (Human), UniProt Q9HAZ1)
# Procedure: as §1
# [19] = molecular target: CRIK(h) (Homo sapiens (Human), UniProt O14578)
# Procedure: as §1
# [20] = molecular target: CSRC(h) (Homo sapiens (Human), UniProt P12931)
# Procedure: as §1
# [21] = molecular target: DCAMKL2(h) (Homo sapiens (Human), UniProt Q8N568)
# Procedure: as §1
# [22] = molecular target: TAO3(h) (Homo sapiens (Human), UniProt Q9H2K8)
# [23] = molecular target: MST4(h) (Homo sapiens (Human), UniProt Q9P289)
# [24] = molecular target: mTOR(h) (Homo sapiens (Human), UniProt P42345)
# Procedure: as §1
# [25] = molecular target: EGFR(L858R)(h) (Homo sapiens (Human), UniProt P00533, L858R)
# Procedure: as §1
# [26] = molecular target: EGFR(L861Q)(h) (Homo sapiens (Human), UniProt P00533, L861Q)
# Procedure: as §1
# [27] = molecular target: EphA1(h) (Homo sapiens (Human), UniProt P21709)
# Procedure: as §1
# [28] = molecular target: NUAK2(h) (Homo sapiens (Human), UniProt Q9H093)
# Procedure: as §1
# [29] = molecular target: TSSK4(h) (Homo sapiens (Human), UniProt Q6SA08)
# Procedure: as §1
# [30] = molecular target: VRK1(h) (Homo sapiens (Human), UniProt Q99986)
# Procedure: as §1
# [31] = molecular target: ErbB2(h) (Homo sapiens (Human), UniProt P04626)
# Procedure: as §1
# [32] = molecular target: Fer(h) (Homo sapiens (Human), UniProt P16591)
# Procedure: as §1
# [33] = molecular target: FGFR4(h) (Homo sapiens (Human), UniProt P22455)
# Procedure: as §1
# [34] = molecular target: PI3 Kinase (p110a(E542K)/p85a)(m) (Mus musculus (Mouse), UniProt P42337, E542K)
# Procedure: as §1
# Sequence of PKCθ(h) (Q04759 whole entry): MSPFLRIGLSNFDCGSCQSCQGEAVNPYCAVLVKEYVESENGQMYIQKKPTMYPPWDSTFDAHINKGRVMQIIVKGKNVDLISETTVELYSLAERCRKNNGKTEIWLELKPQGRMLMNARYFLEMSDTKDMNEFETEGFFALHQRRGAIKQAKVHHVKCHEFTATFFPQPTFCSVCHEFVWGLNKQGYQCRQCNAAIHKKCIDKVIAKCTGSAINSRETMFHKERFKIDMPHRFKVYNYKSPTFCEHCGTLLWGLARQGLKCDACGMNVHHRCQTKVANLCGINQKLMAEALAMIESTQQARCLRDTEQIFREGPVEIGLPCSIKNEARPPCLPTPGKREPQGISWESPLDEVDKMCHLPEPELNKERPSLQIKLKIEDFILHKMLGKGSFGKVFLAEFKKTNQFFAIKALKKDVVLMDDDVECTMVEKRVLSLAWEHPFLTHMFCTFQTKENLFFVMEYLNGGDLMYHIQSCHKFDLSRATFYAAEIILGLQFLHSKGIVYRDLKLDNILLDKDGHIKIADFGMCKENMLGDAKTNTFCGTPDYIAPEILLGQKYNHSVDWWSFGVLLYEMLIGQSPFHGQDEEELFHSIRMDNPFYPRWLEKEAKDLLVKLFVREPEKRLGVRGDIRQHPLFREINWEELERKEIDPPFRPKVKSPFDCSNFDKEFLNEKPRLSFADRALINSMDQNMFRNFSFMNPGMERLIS
# Sequence of PKD3(h) (O94806 whole entry): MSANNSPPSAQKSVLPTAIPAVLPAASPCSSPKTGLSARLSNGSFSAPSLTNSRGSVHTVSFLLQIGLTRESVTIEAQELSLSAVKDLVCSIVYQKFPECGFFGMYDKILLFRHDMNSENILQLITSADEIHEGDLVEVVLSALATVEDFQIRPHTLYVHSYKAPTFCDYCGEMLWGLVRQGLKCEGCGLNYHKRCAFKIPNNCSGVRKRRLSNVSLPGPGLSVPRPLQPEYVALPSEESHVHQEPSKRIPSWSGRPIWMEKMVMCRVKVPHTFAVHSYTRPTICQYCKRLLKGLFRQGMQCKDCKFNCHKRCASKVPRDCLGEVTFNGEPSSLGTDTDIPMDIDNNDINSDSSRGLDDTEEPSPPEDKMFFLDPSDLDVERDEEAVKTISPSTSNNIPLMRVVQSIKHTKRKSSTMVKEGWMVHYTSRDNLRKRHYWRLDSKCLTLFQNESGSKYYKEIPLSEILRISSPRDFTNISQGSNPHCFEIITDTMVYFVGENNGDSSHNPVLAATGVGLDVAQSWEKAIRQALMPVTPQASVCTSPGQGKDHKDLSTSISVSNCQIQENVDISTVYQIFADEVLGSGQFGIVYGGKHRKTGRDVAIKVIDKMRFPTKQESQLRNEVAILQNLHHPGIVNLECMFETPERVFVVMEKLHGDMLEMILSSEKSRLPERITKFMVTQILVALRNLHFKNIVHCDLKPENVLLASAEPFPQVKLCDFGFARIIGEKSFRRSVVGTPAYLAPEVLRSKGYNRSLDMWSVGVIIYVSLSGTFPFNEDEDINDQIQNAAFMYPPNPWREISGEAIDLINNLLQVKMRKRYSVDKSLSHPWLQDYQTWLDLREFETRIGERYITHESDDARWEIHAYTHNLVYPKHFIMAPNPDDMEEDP
# Sequence of Aurora-B(h) (Q96GD4 whole entry): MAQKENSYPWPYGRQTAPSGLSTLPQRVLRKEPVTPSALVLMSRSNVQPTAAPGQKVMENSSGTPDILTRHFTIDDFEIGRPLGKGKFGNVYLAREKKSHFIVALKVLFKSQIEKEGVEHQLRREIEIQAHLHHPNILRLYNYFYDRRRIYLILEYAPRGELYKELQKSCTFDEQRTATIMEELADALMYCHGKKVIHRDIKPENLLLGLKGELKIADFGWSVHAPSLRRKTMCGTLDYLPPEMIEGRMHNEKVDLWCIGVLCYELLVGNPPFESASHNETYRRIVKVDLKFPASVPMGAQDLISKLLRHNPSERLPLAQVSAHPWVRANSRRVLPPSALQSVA
# Sequence of CK1γ3(h) (Q9Y6M4 whole entry): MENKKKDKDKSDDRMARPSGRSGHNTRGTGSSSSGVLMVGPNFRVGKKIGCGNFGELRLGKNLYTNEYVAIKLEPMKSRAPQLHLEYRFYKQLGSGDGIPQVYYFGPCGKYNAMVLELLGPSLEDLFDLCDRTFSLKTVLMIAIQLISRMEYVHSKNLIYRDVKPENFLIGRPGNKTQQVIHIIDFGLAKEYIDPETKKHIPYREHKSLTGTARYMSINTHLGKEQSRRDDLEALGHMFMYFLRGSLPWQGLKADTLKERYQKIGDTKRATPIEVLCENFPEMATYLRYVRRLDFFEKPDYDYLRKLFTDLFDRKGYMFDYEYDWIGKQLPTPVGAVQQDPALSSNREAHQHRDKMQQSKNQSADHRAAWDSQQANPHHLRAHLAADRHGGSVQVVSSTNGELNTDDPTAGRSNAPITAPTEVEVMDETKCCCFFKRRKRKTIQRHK
# Sequence of CHK2(I157T)(h) (O96017 whole entry I157T): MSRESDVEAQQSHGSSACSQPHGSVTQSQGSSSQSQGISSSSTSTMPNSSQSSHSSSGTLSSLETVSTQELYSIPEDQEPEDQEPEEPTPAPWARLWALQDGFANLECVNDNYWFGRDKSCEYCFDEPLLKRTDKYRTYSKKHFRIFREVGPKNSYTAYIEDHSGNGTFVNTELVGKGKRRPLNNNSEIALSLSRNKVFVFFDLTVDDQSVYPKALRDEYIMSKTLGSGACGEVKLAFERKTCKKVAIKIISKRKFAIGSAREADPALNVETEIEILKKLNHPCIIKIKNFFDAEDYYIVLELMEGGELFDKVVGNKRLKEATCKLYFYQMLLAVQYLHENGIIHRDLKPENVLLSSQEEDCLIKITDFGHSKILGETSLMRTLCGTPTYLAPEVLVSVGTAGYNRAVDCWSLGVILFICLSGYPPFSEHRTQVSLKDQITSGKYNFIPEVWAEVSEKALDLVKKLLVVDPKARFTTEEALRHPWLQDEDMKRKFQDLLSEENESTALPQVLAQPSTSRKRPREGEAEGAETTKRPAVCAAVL
# Sequence of KDR(h) (P35968 20-1356): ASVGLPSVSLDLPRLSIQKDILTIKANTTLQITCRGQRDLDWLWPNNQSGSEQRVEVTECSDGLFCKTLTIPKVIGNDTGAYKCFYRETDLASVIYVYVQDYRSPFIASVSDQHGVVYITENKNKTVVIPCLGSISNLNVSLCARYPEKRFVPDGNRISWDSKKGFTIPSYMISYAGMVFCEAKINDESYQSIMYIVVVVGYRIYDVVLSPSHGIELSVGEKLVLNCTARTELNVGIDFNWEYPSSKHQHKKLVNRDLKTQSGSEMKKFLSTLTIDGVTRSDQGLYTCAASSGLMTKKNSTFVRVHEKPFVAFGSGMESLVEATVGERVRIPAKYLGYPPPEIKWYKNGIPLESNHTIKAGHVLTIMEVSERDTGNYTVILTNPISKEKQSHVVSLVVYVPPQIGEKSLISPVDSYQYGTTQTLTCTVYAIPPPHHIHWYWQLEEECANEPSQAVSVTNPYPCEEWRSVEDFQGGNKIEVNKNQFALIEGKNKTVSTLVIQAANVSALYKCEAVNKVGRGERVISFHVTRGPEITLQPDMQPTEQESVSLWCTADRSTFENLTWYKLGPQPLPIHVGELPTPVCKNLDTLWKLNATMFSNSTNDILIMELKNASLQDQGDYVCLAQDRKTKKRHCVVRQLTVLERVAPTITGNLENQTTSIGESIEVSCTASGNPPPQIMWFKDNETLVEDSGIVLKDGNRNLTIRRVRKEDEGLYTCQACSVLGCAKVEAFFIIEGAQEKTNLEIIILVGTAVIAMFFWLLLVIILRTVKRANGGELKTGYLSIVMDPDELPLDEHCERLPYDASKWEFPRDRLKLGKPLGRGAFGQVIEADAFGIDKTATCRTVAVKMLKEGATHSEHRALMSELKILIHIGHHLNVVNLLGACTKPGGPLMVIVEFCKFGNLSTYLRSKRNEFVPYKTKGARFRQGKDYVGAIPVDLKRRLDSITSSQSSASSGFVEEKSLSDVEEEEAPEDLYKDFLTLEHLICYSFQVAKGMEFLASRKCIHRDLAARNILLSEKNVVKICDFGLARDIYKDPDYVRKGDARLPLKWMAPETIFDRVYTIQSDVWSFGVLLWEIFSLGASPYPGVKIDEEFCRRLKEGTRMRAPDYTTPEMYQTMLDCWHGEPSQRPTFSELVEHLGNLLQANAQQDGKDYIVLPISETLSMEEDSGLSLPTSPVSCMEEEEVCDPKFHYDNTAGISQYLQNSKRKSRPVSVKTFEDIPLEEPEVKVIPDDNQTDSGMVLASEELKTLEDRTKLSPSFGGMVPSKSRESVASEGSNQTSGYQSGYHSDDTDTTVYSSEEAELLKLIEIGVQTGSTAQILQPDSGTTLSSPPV
# Sequence of CLK4(h) (Q9HAZ1 whole entry): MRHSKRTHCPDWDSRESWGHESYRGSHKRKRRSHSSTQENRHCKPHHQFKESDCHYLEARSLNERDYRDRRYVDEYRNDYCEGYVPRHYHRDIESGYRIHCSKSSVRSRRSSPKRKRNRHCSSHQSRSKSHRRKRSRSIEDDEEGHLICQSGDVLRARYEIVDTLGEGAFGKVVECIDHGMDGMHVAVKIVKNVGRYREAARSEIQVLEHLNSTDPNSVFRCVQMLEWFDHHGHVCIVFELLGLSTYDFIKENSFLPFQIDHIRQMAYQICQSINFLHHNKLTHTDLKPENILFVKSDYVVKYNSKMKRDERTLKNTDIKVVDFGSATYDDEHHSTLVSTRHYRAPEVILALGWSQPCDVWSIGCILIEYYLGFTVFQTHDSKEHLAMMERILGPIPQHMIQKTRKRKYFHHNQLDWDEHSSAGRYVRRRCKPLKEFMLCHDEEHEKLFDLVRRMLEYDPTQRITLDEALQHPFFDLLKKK
smiles,measurement,setting,value
"C[C@H](NC(=O)c1c[nH]c2ccc(-c3ccc4nc(NC(=O)C5CC5)sc4c3)cc12)c1cccc(F)c1 [Compound 34, (S)-5-(2-(cyclopropanecarboxamido)benzo[d]thiazol-6-yl)-N-(1-(3-fluorophenyl)ethyl)-1H-indole-3-carboxamide]",Inhibition ratio,[1],24%
same,Inhibition ratio,[2],−5%
same,Inhibition ratio,[3],3%
same,Inhibition ratio,[4],21%
same,Inhibition ratio,[5],65%
same,Inhibition ratio,[6]; IKKß(h),12%
same,Inhibition ratio,[7],−24%
same,Inhibition ratio,[8],−5%
same,Inhibition ratio,[9],83%
same,Inhibition ratio,[10],85%
same,Inhibition ratio,[11],96%
same,Inhibition ratio,[12],44%
same,Inhibition ratio,[13],29%
same,Inhibition ratio,[14],3%
same,Inhibition ratio,[15],24%
same,Inhibition ratio,[16],−15%
same,Inhibition ratio,[17],4%
same,Inhibition ratio,[18],79%
same,Inhibition ratio,[19],5%
same,Inhibition ratio,[20],43%
same,Inhibition ratio,[21],6%
same,Inhibition ratio,[22],62%
same,Inhibition ratio,[23],11%
same,Inhibition ratio,[24],−7%
same,Inhibition ratio,[25],65%
same,Inhibition ratio,[26],49%
same,Inhibition ratio,[27],3%
same,Inhibition ratio,[28],9%
same,Inhibition ratio,[29],13%
same,Inhibition ratio,[30],2%
same,Inhibition ratio,[31],10%
same,Inhibition ratio,[32],62%
same,Inhibition ratio,[33],5%
same,Inhibition ratio,[34],33%
"C[C@H](NC(=O)c1cn(C)c2ccc(-c3ccn4nc(NC(=O)C5CC5)nc4c3)cc12)c1cccc(F)c1 [Compound 94, (S)-5-(2-(cyclopropanecarboxamido)-[1,2,4]triazolo[1,5-a]pyridin-7-yl)-N-(1-(3-fluorophenyl)ethyl)-1-methyl-1H-indole-3-carboxamide]",Inhibition ratio/%,[1],2%
same,Inhibition ratio/%,[2],−14%
same,Inhibition ratio/%,[3],−15%
same,Inhibition ratio/%,[4],25%
same,Inhibition ratio/%,[5],65%
same,Inhibition ratio/%,[6]; IKKβ(h),−3%
same,Inhibition ratio/%,[7],7%
same,Inhibition ratio/%,[8],−13%
same,Inhibition ratio/%,[9],−12%
same,Inhibition ratio/%,[10],25%
same,Inhibition ratio/%,[11],50%
same,Inhibition ratio/%,[12],17%
same,Inhibition ratio/%,[13],17%
same,Inhibition ratio/%,[14],−10%
same,Inhibition ratio/%,[15],61%
same,Inhibition ratio/%,[16],−10%
same,Inhibition ratio/%,[17],21%
same,Inhibition ratio/%,[18],79%
same,Inhibition ratio/%,[19],−7%
same,Inhibition ratio/%,[20],−17%
same,Inhibition ratio/%,[21],74%
same,Inhibition ratio/%,[22],6%
same,Inhibition ratio/%,[23],12%
same,Inhibition ratio/%,[24],−11%
same,Inhibition ratio/%,[25],−5%
same,Inhibition ratio/%,[26],75%
same,Inhibition ratio/%,[27],−12%
same,Inhibition ratio/%,[28],30%
same,Inhibition ratio/%,[29],49%
same,Inhibition ratio/%,[30],46%
same,Inhibition ratio/%,[31],47%
same,Inhibition ratio/%,[32],10%
same,Inhibition ratio/%,[33],37%
same,Inhibition ratio/%,[34],−1%

# Reference: patent US20230365546A1, “5-SUBSTITUTED INDOLE 3-AMIDE DERIVATIVES, PREPARATION METHOD AND USE THEREOF” (ORIGIANT PHARMACEUTICAL CO., LTD, priority 2020, published 2023)
